What was measured:
Assay in all cases: Bacterial panel testing, MIC by broth microdilution
Type in all cases: cell-based
Conditions in all cases: 20-24 hours growth
Enterococcus faecium = system: Enterococcus faecium
Procedure, shortened: (§1)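 Read-out: clear (no-growth) wells scored after 20-24 h growth to define compound potency. Inoculum was McFarland-matched bacteria from 2-4 h cultures at 37° C in strain-appropriate Mueller-Hinton or Brain Heart infusion media. Compound (10 μg/ml DMSO stock) was serially diluted twofold across plate columns.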

Pseudomonas aeruginosa = system: Pseudomonas aeruginosa
Procedure, shortened: as §1

Eschericia coli = system: Eschericia coli
Procedure, shortened: as §1

Staphylococcus aureus = system: Staphylococcus aureus
Procedure, shortened: as §1

Salmonella choleraesuis = system: Salmonella choleraesuis
Procedure, shortened: as §1

Bacillus atrophaeus = system: Bacillus atrophaeus
Procedure, shortened: as §1

| SMILES | MIC EF (Enterococcus faecium) | MIC PA (Pseudomonas aeruginosa) | MIC EC (Eschericia coli) | MIC SA (Staphylococcus aureus) | MIC SC (Salmonella choleraesuis) | MIC BA (Bacillus atrophaeus) |
| --- | --- | --- | --- | --- | --- | --- |
| CN(C)C[C@H]1O[C@@H]2O[C@H]3[C@H](O)[C@@H](O)[C@@H](O[C@H]4[C@H](O)[C@@H](O)[C@@H](O[C@H]5[C@H](O)[C@@H](O)[C@@H](O[C@H]6[C@H](O)[C@@H](O)[C@@H](O[C@H]7[C@H](O)[C@@H](O)[C@@H](O[C@H]8[C@H](O)[C@@H](O)[C@@H](O[C@H]1[C@H](O)[C@H]2O)O[C@@H]8CN(C)C)O[C@@H]7CN(C)C)O[C@@H]6CN(C)C)O[C@@H]5CN(C)C)O[C@@H]4CN(C)C)O[C@@H]3CN(C)C | >200 µg/mL | >200 µg/mL | >200 µg/mL | >200 µg/mL | >200 µg/mL | <0.2 µg/mL |
| CC(C)[C@H](N)C(=O)NC[C@H]1O[C@@H]2O[C@H]3[C@H](O)[C@@H](O)[C@@H](O[C@H]4[C@H](O)[C@@H](O)[C@@H](O[C@H]5[C@H](O)[C@@H](O)[C@@H](O[C@H]6[C@H](O)[C@@H](O)[C@@H](O[C@H]7[C@H](O)[C@@H](O)[C@@H](O[C@H]8[C@H](O)[C@@H](O)[C@@H](O[C@H]1[C@H](O)[C@H]2O)O[C@@H]8CNC(=O)[C@@H](N)C(C)C)O[C@@H]7CNC(=O)[C@@H](N)C(C)C)O[C@@H]6CNC(=O)[C@@H](N)C(C)C)O[C@@H]5CNC(=O)[C@@H](N)C(C)C)O[C@@H]4CNC(=O)[C@@H](N)C(C)C)O[C@@H]3CNC(=O)[C@@H](N)C(C)C.Cl.Cl.Cl.Cl.Cl.Cl.Cl | >200 µg/mL | >200 µg/mL | >200 µg/mL | >200 µg/mL | >200 µg/mL | >200 µg/mL |
| Cl.Cl.Cl.Cl.Cl.Cl.Cl.N[C@@H](CC(=O)O)C(=O)NC[C@H]1O[C@@H]2O[C@H]3[C@H](O)[C@@H](O)[C@@H](O[C@H]4[C@H](O)[C@@H](O)[C@@H](O[C@H]5[C@H](O)[C@@H](O)[C@@H](O[C@H]6[C@H](O)[C@@H](O)[C@@H](O[C@H]7[C@H](O)[C@@H](O)[C@@H](O[C@H]8[C@H](O)[C@@H](O)[C@@H](O[C@H]1[C@H](O)[C@H]2O)O[C@@H]8CNC(=O)[C@@H](N)CC(=O)O)O[C@@H]7CNC(=O)[C@@H](N)CC(=O)O)O[C@@H]6CNC(=O)[C@@H](N)CC(=O)O)O[C@@H]5CNC(=O)[C@@H](N)CC(=O)O)O[C@@H]4CNC(=O)[C@@H](N)CC(=O)O)O[C@@H]3CNC(=O)[C@@H](N)CC(=O)O | >200 µg/mL | >200 µg/mL | >200 µg/mL | >200 µg/mL | >200 µg/mL | >200 µg/mL |
| Cl.Cl.Cl.Cl.Cl.Cl.Cl.NCCCC(=O)NC[C@H]1O[C@@H]2O[C@H]3[C@H](O)[C@@H](O)[C@@H](O[C@H]4[C@H](O)[C@@H](O)[C@@H](O[C@H]5[C@H](O)[C@@H](O)[C@@H](O[C@H]6[C@H](O)[C@@H](O)[C@@H](O[C@H]7[C@H](O)[C@@H](O)[C@@H](O[C@H]8[C@H](O)[C@@H](O)[C@@H](O[C@H]1[C@H](O)[C@H]2O)O[C@@H]8CNC(=O)CCCN)O[C@@H]7CNC(=O)CCCN)O[C@@H]6CNC(=O)CCCN)O[C@@H]5CNC(=O)CCCN)O[C@@H]4CNC(=O)CCCN)O[C@@H]3CNC(=O)CCCN | >200 µg/mL | >200 µg/mL | >200 µg/mL | >200 µg/mL | >200 µg/mL | >200 µg/mL |
| OC1C2OC(CNc3ccccc3)C(OC3OC(CNc4ccccc4)C(OC4OC(CNc5ccccc5)C(OC5OC(CNc6ccccc6)C(OC6OC(CNc7ccccc7)C(OC7OC(CNc8ccccc8)C(OC8OC(CNc9ccccc9)C(O2)C(O)C8O)C(O)C7O)C(O)C6O)C(O)C5O)C(O)C4O)C(O)C3O)C1O (stereo not drawn) | >200 µg/mL | >200 µg/mL | >200 µg/mL | >200 µg/mL | >200 µg/mL | >200 µg/mL |
| CCCCCCCCCCCC[N+]12CC[N+](CC(=O)NCC3OC4OC5C(CNC(=O)C[N+]67CC[N+](CCCCCCCCCCCC)(CC6)CC7)OC(OC6C(CNC(=O)C[N+]78CC[N+](CCCCCCCCCCCC)(CC7)CC8)OC(OC7C(CNC(=O)C[N+]89CC[N+](CCCCCCCCCCCC)(CC8)CC9)OC(OC8C(CNC(=O)C[N+]9%10CC[N+](CCCCCCCCCCCC)(CC9)CC%10)OC(OC9C(CNC(=O)C[N+]%10%11CC[N+](CCCCCCCCCCCC)(CC%10)CC%11)OC(OC%10C(CNC(=O)C[N+]%11%12CC[N+](CCCCCCCCCCCC)(CC%11)CC%12)OC(OC3C(O)C4O)C(O)C%10O)C(O)C9O)C(O)C8O)C(O)C7O)C(O)C6O)C(O)C5O)(CC1)CC2 (stereo not drawn) | >200 µg/mL | >200 µg/mL | >200 µg/mL | >200 µg/mL | >200 µg/mL | >200 µg/mL |
| OC1C2OC(CN3CCN(c4ccccn4)CC3)C(OC3OC(CN4CCN(c5ccccn5)CC4)C(OC4OC(CN5CCN(c6ccccn6)CC5)C(OC5OC(CN6CCN(c7ccccn7)CC6)C(OC6OC(CN7CCN(c8ccccn8)CC7)C(OC7OC(CN8CCN(c9ccccn9)CC8)C(OC8OC(CN9CCN(c%10ccccn%10)CC9)C(O2)C(O)C8O)C(O)C7O)C(O)C6O)C(O)C5O)C(O)C4O)C(O)C3O)C1O (stereo not drawn) | >200 µg/mL | >200 µg/mL | >200 µg/mL | >200 µg/mL | >200 µg/mL | >200 µg/mL |
| Cl.Cl.Cl.Cl.Cl.Cl.NCCCSCC1OC2OC3C(CSCCCN)OC(OC4C(CSCCCN)OC(OC5C(CSCCCN)OC(OC6C(CSCCCN)OC(OC7C(CSCCCN)OC(OC1C(O)C2O)C(O)C7O)C(O)C6O)C(O)C5O)C(O)C4O)C(O)C3O (stereo not drawn) | >200 µg/mL | >200 µg/mL | >200 µg/mL | >200 µg/mL | >200 µg/mL | >200 µg/mL |
| COCCNCC1OC2OC3C(CNCCOC)OC(OC4C(CNCCOC)OC(OC5C(CNCCOC)OC(OC6C(CNCCOC)OC(OC7C(CNCCOC)OC(OC8C(CNCCOC)OC(OC1C(O)C2O)C(O)C8O)C(O)C7O)C(O)C6O)C(O)C5O)C(O)C4O)C(O)C3O (stereo not drawn) | >200 µg/mL | >200 µg/mL | >200 µg/mL | >200 µg/mL | >200 µg/mL | >200 µg/mL |
| CC(=O)NCC1OC2OC3C(CNC(C)=O)OC(OC4C(CNC(C)=O)OC(OC5C(CNC(C)=O)OC(OC6C(CNC(C)=O)OC(OC7C(CNC(C)=O)OC(OC8C(CNC(C)=O)OC(OC1C(O)C2O)C(O)C8O)C(O)C7O)C(O)C6O)C(O)C5O)C(O)C4O)C(O)C3O (stereo not drawn) | >200 µg/mL | >200 µg/mL | >200 µg/mL | >200 µg/mL | >200 µg/mL | >200 µg/mL |
